Measurements from US8048879B2, “Substituted 4,5,6,7-tetrahydro-isoxazolo[4,5-c]pyridine compounds and use thereof for producing medicaments” (Gruenenthal GmbH, priority 2005, dated 2011).

Columns and labels:
5-HT transporter = target: T1, 5-HT transporter (Rattus norvegicus, UniProt P31652); assay: 5-HT uptake inhibition, synaptosomes from rat brain (medulla and pons); assay type: biochemical
T1 construct: from tissue; host or cells: rat brain (medulla and pons), synaptosomes, P2 fraction
Summary of the method: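 Freshly isolated rat brain synaptosomes (P2 fraction): hypothalamus for NA uptake, medulla/pons for 5-HT uptake. Uptake of [3H]-NA (7.5 min) or [3H]-5-HT (5 min) at room temperature under O2, stopped by filtration over GF/B. Retained radioactivity counted by scintillation.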

NA transporter = target: T2, NA transporter (Rattus norvegicus, UniProt Q9WTR4); assay: Noradrenalin (NA) uptake inhibition, synaptosomes from rat brain (hypothalamus); assay type: biochemical
T2 construct: from tissue; host or cells: rat brain (hypothalamus), synaptosomes, P2 fraction
T2 sequence (Q9WTR4 1-597): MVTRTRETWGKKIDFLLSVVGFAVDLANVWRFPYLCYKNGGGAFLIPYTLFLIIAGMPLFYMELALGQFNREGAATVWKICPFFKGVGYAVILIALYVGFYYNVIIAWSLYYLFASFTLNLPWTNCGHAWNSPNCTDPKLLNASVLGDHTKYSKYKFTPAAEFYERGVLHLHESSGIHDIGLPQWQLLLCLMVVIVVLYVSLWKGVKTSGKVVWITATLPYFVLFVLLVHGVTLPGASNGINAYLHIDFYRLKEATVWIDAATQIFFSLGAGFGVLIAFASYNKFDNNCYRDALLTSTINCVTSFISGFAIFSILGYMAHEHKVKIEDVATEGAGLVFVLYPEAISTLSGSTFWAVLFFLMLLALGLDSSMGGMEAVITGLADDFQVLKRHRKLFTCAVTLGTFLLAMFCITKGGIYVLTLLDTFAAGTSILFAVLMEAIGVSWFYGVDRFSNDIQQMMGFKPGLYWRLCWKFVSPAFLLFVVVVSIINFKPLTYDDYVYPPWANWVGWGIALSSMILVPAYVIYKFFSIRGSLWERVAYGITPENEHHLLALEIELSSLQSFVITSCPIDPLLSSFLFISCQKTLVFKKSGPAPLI
Excerpt: b) Method for Determining Noradrenalin and 5-HT Uptake Inhibition:
Synaptosomes from rat brain regions are freshly isolated for in vitro studies, as described in the publication “The isolation of nerve endings from brain” by E. G. Gray and V. P. Whittaker, J. Anatomy 96, pages 79-88, 1962. The corresponding literature description is hereby introduced as a reference and is deemed to be part of the disclosure.
The tissue (hypothalamus for the determination of noradrenalin uptake inhibition and medulla and pons for the determination of 5-HT uptake inhibition) is homogenised in ice-cooled 0.32 M sucrose (100 mg of tissue/1 mL) in a glass homogeniser with Teflon pestle using five complete up and down strokes at 840 revolutions/minute.
The homogenate is centrifuged at 4° C. for 10 minutes at 1000 g. After subsequent centrifugation at 17000 g for 55 minutes, the synaptosomes (P2 fraction) are obtained, which are resuspended in 0.32 M […] (0.5 mL/100 mg of original weight).
The particular uptake is measured in a 96-well microtitre plate. The volume is 250 μL and the incubation proceeds at room temperature (approx. 20-25° C.) under an O2 atmosphere.
The incubation time is 7.5 minutes for [^3H]-NA and 5 minutes for [^3H]-5-HT. The 96 samples are then filtered through a Unifilter GF/B® microtitre plate (Packard) and washed with 200 mL of incubated buffer using a “Brabdel MPXRI-96T Cell-Harvester”. The Unifilter GF/B plate is dried for 1 hour at 55° C. The plate is then sealed with a Back Seal® (Packard) and 35 μL of scintillation fluid are added per well (Ultima Gold®, Packard). After sealing with a top Seal® (Packard) and establishing an equilibrium (around 5 hours), radioactivity is determined in a “Trilux 1450 Microbeta” (Wallac).
The quantity of protein used in the above determination corresponds to the values known from the literature, as for example described in “Protein measurement with the folin phenol reagent”, Lowry et al., J. Biol. Chem., 193, 265-275, 1951.
A detailed description of the method may additionally be found in the literature, for example in M. Ch. Frink, H.-H. Hennies, W. Engelberger, M. Haurand and B. Wilffert (1996) Arzneim.-Forsch./Drug Res. 46 (III), 11, 1029-1036.
The following characteristics were determined for the NA or 5-HT transporter: […]

T1 sequence (P31652 whole entry): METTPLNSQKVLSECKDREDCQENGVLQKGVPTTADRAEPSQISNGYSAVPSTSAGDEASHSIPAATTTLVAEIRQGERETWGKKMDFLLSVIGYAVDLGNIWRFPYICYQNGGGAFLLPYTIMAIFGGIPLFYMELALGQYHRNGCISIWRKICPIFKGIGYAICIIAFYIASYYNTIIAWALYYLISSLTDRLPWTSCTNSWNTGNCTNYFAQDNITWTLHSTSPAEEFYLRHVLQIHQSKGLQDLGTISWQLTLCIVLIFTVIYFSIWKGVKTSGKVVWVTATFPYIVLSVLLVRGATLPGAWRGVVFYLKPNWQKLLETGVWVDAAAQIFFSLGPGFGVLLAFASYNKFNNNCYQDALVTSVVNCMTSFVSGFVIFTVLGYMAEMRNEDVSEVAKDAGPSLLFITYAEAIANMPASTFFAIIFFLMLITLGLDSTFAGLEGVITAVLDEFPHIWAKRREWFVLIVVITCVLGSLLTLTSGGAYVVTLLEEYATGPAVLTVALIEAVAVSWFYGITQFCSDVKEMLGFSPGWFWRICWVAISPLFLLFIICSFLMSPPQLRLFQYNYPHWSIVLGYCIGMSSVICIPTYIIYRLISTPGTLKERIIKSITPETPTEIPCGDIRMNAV

| SMILES | inhibition at 10 µM (5-HT transporter) | melting point | inhibition at 10 µM (NA transporter) | 5-HT uptake (rat), 10 μM, % inhibition (5-HT transporter; 10 µM) |
| --- | --- | --- | --- | --- |
| CC(=O)c1ccc(N2CCN(C(=O)c3noc4c3CN(S(=O)(=O)c3ccc(C)cc3)CC4)CC2)cc1 [Example 86, 1-(4-{4-[5-(Toluene-4-sulfonyl)-4,5,6,7-tetrahydro-isoxazolo[4,5-c]pyridine-3-carbonyl]-piperazin-1-yl}-phenyl)-ethanone] | 86% | 187.8 °C | – | – |
| O=C(c1noc2c1CN(S(=O)(=O)c1ccc(Cl)c(Cl)c1)CC2)N1CCC(CCN2CCCC2)CC1 [Example 147, (5-(3,4-dichlorophenylsulfonyl)-4,5,6,7-tetrahydroisoxazolo[4,5-c]pyridin-3-yl)(4-(2-(pyrrolidin-1-yl)ethyl)piperidin-1-yl)methanone] | 35% | – | 34% | – |
| O=C(c1noc2c1CN(S(=O)(=O)c1ccc3ccccc3c1)CC2)N1CCC(CCN2CCCC2)CC1 [Example 148, (5-(naphthalen-2-ylsulfonyl)-4,5,6,7-tetrahydroisoxazolo[4,5-c]pyridin-3-yl)(4-(2-(pyrrolidin-1-yl)ethyl)piperidin-1-yl)methanone] | 67% | – | 49% | – |
| Cl.O=C(c1noc2c1CN(S(=O)(=O)c1cccc3ccccc13)CC2)N1CCC(CCN2CCCC2)CC1 [Example 149, (5-(Naphthalene-1-ylsulfonyl)-4,5,6,7-tetrahydroisoxazolo[4,5-c]pyridin-3-yl)(4-(2-(pyrrolidin-1-yl)ethyl)piperidin-1-yl)methanone hydrochloride] | 68% | – | 54% | – |
| CC(NC(=O)N1CCc2onc(C(=O)NCc3ccccc3)c2C1)c1ccccc1 (stereo not drawn) [Example 150, N^3-benzyl-N^5-(1-phenylethyl)-6,7-dihydroisoxazolo[4,5-c]pyridine-3,5(4H)-dicarboxamide] | 58% | – | 27% | – |
| COc1ccc(NC(=O)N2CCc3onc(C(=O)NCc4ccccc4)c3C2)cc1 [Example 151, N^3-benzyl-N^5-(4-methoxyphenyl)-6,7-dihydroisoxazolo[4,5-c]pyridine-3,5(4H)-dicarboxamide] | 36% | – | 34% | – |
| Cc1ccc(NC(=O)c2noc3c2CN(S(=O)(=O)c2ccc(C)cc2)CC3)cc1 [Example 152, N-p-tolyl-5-tosyl-4,5,6,7-tetrahydroisoxazolo[4,5-c]pyridine-3-carboxamide] | 29% | – | 24% | – |
| COCCNC(=O)c1noc2c1CN(C(=O)c1ccc(C(F)(F)F)c(F)c1)CC2 [Example 153, 5-(3-fluoro-4-(trifluoromethyl)benzoyl)-N-(2-methoxyethyl)-4,5,6,7-tetrahydroisoxazolo[4,5-c]pyridine-3-carboxamide] | 37% | – | -12% | – |
| COc1ccc(NC(=O)N2CCc3onc(C(=O)NCc4ccc(S(N)(=O)=O)cc4)c3C2)cc1 [Example 154, N^5-(4-methoxyphenyl)-N^3-(4-sulfamoylbenzyl)-6,7-dihydroisoxazolo[4,5-c]pyridine-3,5(4H)-dicarboxamide] | -8% | – | -4% | – |
| O=C(NCCN1CCCC1)c1noc2c1CN(C(=O)COc1cccc(Cl)c1)CC2 [Example 155, 5-(2-(3-chlorophenoxy)acetyl)-N-(2-(pyrrolidin-1-yl)ethyl)-4,5,6,7-tetrahydroisoxazolo[4,5-c]pyridine-3-carboxamide] | 92% | – | 70% | – |
| O=C(Nc1ccccc1)c1noc2c1CN(C(=O)c1ccccc1F)CC2 [Example 156, 5-(2-fluorobenzoyl)-N-phenyl-4,5,6,7-tetrahydroisoxazolo[4,5-c]pyridine-3-carboxamide] | 10% | – | 23% | – |
| Cc1ccc(S(=O)(=O)N2CCc3onc(C(=O)NCc4ccc(S(N)(=O)=O)cc4)c3C2)cc1 [Example 157, N-(4-sulfamoylbenzyl)-5-tosyl-4,5,6,7-tetrahydroisoxazolo[4,5-c]pyridine-3-carboxamide] | – | – | 45% | 15% |
